Source: PMC10872723 (Journal of medicinal chemistry, 2023)
Where two headings read alike, the source gives them in different places.

Assays:
WDR5 [1] = target: T1, WDR5 (Homo sapiens, UniProt P61964); test: Western blotting of WDR5 degradation in PDAC cell lines; format: cell-based; details: 18 h; for WDR5 degradation (WB): MIA PaCa-2, BxPC-3, HPAF-II, Panc10.05 and PANC-1 cells, indicated concentrations
VCB E3 ligase complex = VCB E3 ligase complex (Homo sapiens, UniProt P40337); test: Isothermal titration calorimetry; format: binding
VCB E3 ligase complex, sequence (Q15369 whole entry): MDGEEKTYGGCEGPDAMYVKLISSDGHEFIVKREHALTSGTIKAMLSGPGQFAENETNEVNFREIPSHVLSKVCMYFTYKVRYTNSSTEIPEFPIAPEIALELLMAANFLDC
VCB E3 ligase complex, sequence (Q15370 1-104, further chain): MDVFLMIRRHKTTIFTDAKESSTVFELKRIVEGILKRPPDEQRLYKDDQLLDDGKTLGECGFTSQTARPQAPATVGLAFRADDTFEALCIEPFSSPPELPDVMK
VCB E3 ligase complex, sequence (P40337 54-213): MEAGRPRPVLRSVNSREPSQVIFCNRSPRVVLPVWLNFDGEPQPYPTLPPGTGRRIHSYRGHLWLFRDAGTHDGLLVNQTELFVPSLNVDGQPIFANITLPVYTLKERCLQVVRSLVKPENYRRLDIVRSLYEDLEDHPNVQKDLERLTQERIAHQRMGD

WDR5 [2] = target: T1, WDR5; details: MIA PaCa-2 cells
[3] = test system: PDAC cell lines including MIA PaCa-2, BxPC-3, HPAF-II, Panc10.05, and PANC-1; test: Antiproliferative activity in PDAC cell lines; format: cell-based, human
[4] = test system: WDR5-11–VCB ternary complex; test: ITC binding cooperativity, VCB into WDR5-11 binary complex; parameters: species or system human; details: VCB binding to the WDR5-11 binary complex vs VCB into 11
Mouse PK study = details: 75 mg/kg
MIA PaCa-2 cells = test: TMT MS-based global proteomic study in MIA PaCa-2 cells; format: cell-based, human; details: 1.5 μM, 2 h, 4040 quantified proteins, cutoff P value less than 0.01, Log2 fold change greater than 0.5
WDR5 [5] = target: T1, WDR5; test: Western blotting of WDR5 protein levels in MV4; details: MV4;11 cells
IKZF1 = IKZF1 (Homo sapiens, UniProt Q13422); test: Western blotting of IKZF1 protein levels in MV4; details: MV4;11 cells
IKZF1, sequence (Q13422 whole entry): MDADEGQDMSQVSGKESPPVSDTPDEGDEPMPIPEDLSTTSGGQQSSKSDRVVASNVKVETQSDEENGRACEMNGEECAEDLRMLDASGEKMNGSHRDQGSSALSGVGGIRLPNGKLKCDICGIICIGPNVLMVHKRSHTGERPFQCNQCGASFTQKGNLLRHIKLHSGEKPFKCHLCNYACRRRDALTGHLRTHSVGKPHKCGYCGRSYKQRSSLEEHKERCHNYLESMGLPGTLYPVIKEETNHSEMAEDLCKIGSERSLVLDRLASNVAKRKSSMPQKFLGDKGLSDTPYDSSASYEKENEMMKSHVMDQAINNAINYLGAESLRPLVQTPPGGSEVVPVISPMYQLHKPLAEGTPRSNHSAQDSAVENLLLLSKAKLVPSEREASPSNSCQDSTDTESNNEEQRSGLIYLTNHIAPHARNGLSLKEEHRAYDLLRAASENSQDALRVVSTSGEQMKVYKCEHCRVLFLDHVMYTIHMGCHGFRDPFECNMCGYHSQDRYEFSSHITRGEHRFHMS

LIMD1 = LIMD1 (Homo sapiens, UniProt Q9UGP4); test: Western blotting of LIMD1 protein levels in MV4; details: MV4;11 cells, 0.1 and 0.5 μM, 18 h (Figure 5A)
LIMD1, sequence (Q9UGP4 whole entry): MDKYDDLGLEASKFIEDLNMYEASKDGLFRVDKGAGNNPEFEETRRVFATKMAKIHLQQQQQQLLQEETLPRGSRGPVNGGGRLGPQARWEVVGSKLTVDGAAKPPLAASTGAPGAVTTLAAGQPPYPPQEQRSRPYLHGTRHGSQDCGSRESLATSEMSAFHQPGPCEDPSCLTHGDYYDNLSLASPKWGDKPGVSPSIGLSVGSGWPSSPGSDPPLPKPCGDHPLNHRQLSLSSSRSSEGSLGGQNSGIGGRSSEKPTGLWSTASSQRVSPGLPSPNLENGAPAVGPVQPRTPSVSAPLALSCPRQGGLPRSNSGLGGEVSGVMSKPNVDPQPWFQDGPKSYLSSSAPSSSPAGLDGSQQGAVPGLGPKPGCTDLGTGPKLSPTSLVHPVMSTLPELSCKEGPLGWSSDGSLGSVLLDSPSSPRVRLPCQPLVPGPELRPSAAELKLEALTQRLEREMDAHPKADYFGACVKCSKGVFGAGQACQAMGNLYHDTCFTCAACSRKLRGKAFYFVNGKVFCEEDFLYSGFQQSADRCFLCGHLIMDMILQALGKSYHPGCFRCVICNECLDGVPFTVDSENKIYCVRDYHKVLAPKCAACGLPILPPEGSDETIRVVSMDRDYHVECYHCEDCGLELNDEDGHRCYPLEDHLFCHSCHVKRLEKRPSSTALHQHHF

WDR5 [6] = target: T1, WDR5; test: Isothermal titration calorimetry; format: binding
WDR5 K296R = WDR5 K296R (Homo sapiens, UniProt P61964, K296R); test: Immunoblot of WDR5 K296R mutant degradation in HEK293T cells; format: cell-based; details: HEK293T cells overexpressing K296R (Dox), indicated concentrations, 3 days
[7] = test system: PDAC cell lines including MIA PaCa-2, BxPC-3, HPAF-II, Panc10.05, and PANC-1; details: previously reported; cited from earlier work
[8] = 0.1 and 0.5 μM, 18 h (Figure 5A)
[9] = indicated concentrations, 18 h (Figure 5C)
[10] = indicated concentrations, 18 h (Figure 5B)

## Cc1ncsc1-c1ccc(CNC(=O)[C@@H]2C[C@@H](O)CN2C(=O)[C@@H](NC(=O)CNC(=O)c2ccc(F)c(-c3ccc(N4C[C@@H](C)N(C)[C@@H](C)C4)c(NC(=O)c4c[nH]c(=O)cc4C(F)(F)F)c3)c2)C(C)(C)C)cc1 [Compound 11, N-(2′-Fluoro-5′-((2-(((S)-1-((2S,4R)-4-hydroxy-2-((4-(4-methylthiazol-5-yl)benzyl)carbamoyl)pyrrolidin-1-yl)-3,3-dimethyl-1-oxobutan-2-yl)amino)-2-oxoethyl)carbamoyl)-4-((3S,5R)-3,4,5-trimethylpiperazin-1-yl)-[1,1′-biphenyl]-3-yl)-6-oxo-4-(trifluoromethyl)-1,6-dihydropyridine-3-carboxamide]
WDR5 [1]
  WDR5 degradation (WB): induced WDR5 degradation in a concentration-dependent manner
WDR5 [1]; PDAC cells, concentrations up to 50 μM
  Hook effect in WDR5 degradation: no “hook effect” observed
VCB E3 ligase complex
  Kd: 534 ± 48 nM
WDR5 [2]; 0.1 μM
  Time at which maximal WDR5 degradation achieved: 24 h
  Time at which significant WDR5 reduction observed: 2 h
WDR5 [2]; 1.5 μM, 2 h (Figure S5)
  WDR5 protein levels (WB verification for proteomics): significantly reduced WDR5 protein levels
WDR5 [2]; 0.1 and 0.5 μM, 18 h (Figure 3)
  WDR5 protein levels (WB): effectively decreased the WDR5 protein levels
[3]; Homo sapiens, 144 h
  GI50: 4 to 32 µM
[4]
  Binding cooperativity α = KD (binary)/KD (ternary): 2.30
Mouse PK study; male, Swiss albino, mouse, plasma, ip
  Tmax: 30 min
Mouse PK study; mice, single IP injection
  Clinical signs during the PK study: no clinical signs were observed
  Plasma concentration maintained for the initial 4 h: around 1 μM
  Plasma concentration maintained over 12 h: above 100 nM
MIA PaCa-2 cells
  Proteome-wide degradation selectivity: WDR5 is the only protein whose abundance was significantly decreased

## CN1CCN(c2ccc(-c3cccc(CN4CCN(CCNC(=O)CCCCCCCNC(=O)COc5cccc6c5C(=O)N(C5CCC(=O)NC5=O)C6=O)CC4)c3)cc2NC(=O)c2c[nH]c(=O)cc2C(F)(F)F)CC1 (centres unmarked) [Compound 21, N-(3′-((4-(2-(8-(2-((2-(2,6-Dioxopiperidin-3-yl)-1,3-dioxoisoindolin-4-yl)oxy)acetamido)octanamido)ethyl)piperazin-1-yl)methyl)4-(4-methylpiperazin-1-yl)-[1,1′-biphenyl]-3-yl)-6-oxo-4-(trifluoromethyl)-1,6-dihydropyridine-3-carboxamide]
WDR5 [5]; [8]
  Effectiveness in downregulating WDR5 protein levels relative to other degraders: slightly more effective than MS40 and 23
  WDR5 protein levels (WB): effectively downregulated WRD5 protein levels
WDR5 [2]; [9]
  WDR5 protein levels (WB): effectively reduced the cellular WDR5 protein levels
IKZF1; [8]
  IKZF1 protein levels (WB): completely ineffective in degrading neo-substrate IKZF1
LIMD1
  LIMD1 protein levels (WB): completely ineffective in degrading neo-substrate IKZF1, and protein LIMD1

## CN1CCN(c2ccc(-c3cccc(CN4CCN(CCNC(=O)CCCCCCCNC(=O)COc5cccc6c5C(=O)N(C5CCC(=O)N(C)C5=O)C6=O)CC4)c3)cc2NC(=O)c2c[nH]c(=O)cc2C(F)(F)F)CC1 (centres unmarked) [Compound 22, N-(3′-((4-(2-(8-(2-((2-(1-Methyl-2,6-dioxopiperidin-3-yl)-1,3-dioxoisoindolin-4-yl)oxy)acetamido)octanamido)ethyl)piperazin-1-yl)methyl)-4-(4-methylpiperazin-1-yl)-[1,1′-biphenyl]-3-yl)-6-oxo-4-(trifluoromethyl)-1,6-dihydropyridine-3-carboxamide]
WDR5 [5]; [8]
  WDR5 protein levels (WB): did not have an effect on the protein levels of WDR5, IKZF1, and LIMD1
IKZF1; [8]
  IKZF1 protein levels (WB): did not have an effect on the protein levels of WDR5, IKZF1, and LIMD1
LIMD1
  LIMD1 protein levels (WB): did not have an effect on the protein levels of WDR5, IKZF1, and LIMD1

## CN1CCN(c2ccc(-c3cccc(CN4CCN(CCNC(=O)CCCCNC(=O)COc5cccc6c5C(=O)N(C5CCC(=O)NC5=O)C6=O)CC4)c3)cc2NC(=O)c2c[nH]c(=O)cc2C(F)(F)F)CC1 (centres unmarked) [Compound 23, N-(3′-((4-(2-(5-(2-((2-(2,6-Dioxopiperidin-3-yl)-1,3-dioxoisoindolin-4-yl)oxy)acetamido)pentanamido)ethyl)piperazin-1-yl)methyl)-4-(4-methylpiperazin-1-yl)-[1,1′-biphenyl]-3-yl)-6-oxo-4-(trifluoromethyl)-1,6-dihydropyridine-3-carboxamide]
WDR5 [5]; [8]
  WDR5 protein levels (WB): to a less extent effectively downregulated WRD5 protein levels
IKZF1; [8]
  IKZF1 protein levels (WB): completely ineffective in degrading neo-substrate IKZF1
LIMD1
  LIMD1 protein levels (WB): completely ineffective in degrading neo-substrate IKZF1, and protein LIMD1

## CN1CCN(c2ccc(-c3cccc(CN4CCN(CCNC(=O)CCCCNC(=O)COc5cccc6c5C(=O)N(C5CCC(=O)N(C)C5=O)C6=O)CC4)c3)cc2NC(=O)c2c[nH]c(=O)cc2C(F)(F)F)CC1 (centres unmarked) [Compound 24, N-(3′-((4-(2-(5-(2-((2-(1-Methyl-2,6-dioxopiperidin-3-yl)-1,3-dioxoisoindolin-4-yl)oxy)acetamido)pentanamido)ethyl)piperazin-1-yl)methyl)-4-(4-methylpiperazin-1-yl)-[1,1′-biphenyl]-3-yl)-6-oxo-4-(trifluoromethyl)-1,6-dihydropyridine-3-carboxamide]
WDR5 [5]; [8]
  WDR5 protein levels (WB): did not have an effect on the protein levels of WDR5, IKZF1, and LIMD1
IKZF1; [8]
  IKZF1 protein levels (WB): did not have an effect on the protein levels of WDR5, IKZF1, and LIMD1
LIMD1
  LIMD1 protein levels (WB): did not have an effect on the protein levels of WDR5, IKZF1, and LIMD1

## C[C@@H]1CN(c2ccc(-c3cc(C(=O)NCCCCCCCNC(=O)COc4cccc5c4C(=O)N(C4CCC(=O)NC4=O)C5=O)ccc3F)cc2NC(=O)c2c[nH]c(=O)cc2C(F)(F)F)C[C@H](C)N1C (stereo partly drawn) [Compound 25, N-(5′-((7-(2-((2-(2,6-Dioxopiperidin-3-yl)-1,3-dioxoisoindolin-4-yl)oxy)acetamido)heptyl)carbamoyl)-2′-fluoro-4-((3S,5R)-3,4,5-trimethylpiperazin-1-yl)-[1,1′-biphenyl]-3-yl)-6-oxo-4-(trifluoromethyl)-1,6-dihydropyridine-3-carboxamide]
WDR5 [2]; [9]
  WDR5 protein levels (WB): effectively reduced the cellular WDR5 protein levels
IKZF1; [10]
  IKZF1 protein levels (WB): had no effect on IKZF1 protein levels

## C[C@@H]1CN(c2ccc(-c3cc(C(=O)NCCCCCCCNC(=O)COc4cccc5c4C(=O)N(C4CCC(=O)N(C)C4=O)C5=O)ccc3F)cc2NC(=O)c2c[nH]c(=O)cc2C(F)(F)F)C[C@H](C)N1C (stereo partly drawn) [Compound 26, N-(2′-Fluoro-5′-((7-(2-((2-(1-methyl-2,6-dioxopiperidin-3-yl)-1,3-dioxoisoindolin-4-yl)oxy)acetamido)heptyl)carbamoyl)-4-((3S,5R)-3,4,5-trimethylpiperazin-1-yl)-[1,1′-biphenyl]-3-yl)-6-oxo-4-(trifluoromethyl)-1,6-dihydropyridine-3-carboxamide]
WDR5 [5]; indicated concentrations, 18 h (Figures 5B and S1)
  WDR5 protein levels (WB): did not affect the protein levels of WDR5 and IKZF1
IKZF1; [10]
  IKZF1 protein levels (WB): did not affect the protein levels of WDR5 and IKZF1

## Cc1ncsc1-c1ccc(CNC(=O)[C@H]2C[C@H](O)CN2C(=O)[C@@H](NC(=O)CNC(=O)c2ccc(F)c(-c3ccc(N4C[C@@H](C)N(C)[C@@H](C)C4)c(NC(=O)c4c[nH]c(=O)cc4C(F)(F)F)c3)c2)C(C)(C)C)cc1 [Compound 27, N-(2′-Fluoro-5′-((2-(((S)-1-((2R,4S)-4-hydroxy-2-((4-(4-methylthiazol-5-yl)benzyl)carbamoyl)pyrrolidin-1-yl)-3,3-dimethyl-1-oxobutan-2-yl)amino)-2-oxoethyl)carbamoyl)-4-((3S,5R)-3,4,5-trimethylpiperazin-1-yl)-[1,1′-biphenyl]-3-yl)-6-oxo-4-(trifluoromethyl)-1,6-dihydropyridine-3-carboxamide]
WDR5 [6]
  Kd: 106 ± 43 nM
WDR5 [1]
  WDR5 degradation (WB): unable to degrade WDR5 in all tested pancreatic cancer cells
VCB E3 ligase complex; mean ± SD, three independent experiments
  KD to VCB (ITC): did not display any noticeable binding to VCB
[3]; PDAC cells, 6 day treatment
  Antiproliferative activity: lack of antiproliferative activity

## Cc1ncsc1-c1ccc([C@H](C)NC(=O)[C@@H]2C[C@@H](O)CN2C(=O)[C@@H](NC(=O)CNC(=O)c2ccc(F)c(-c3ccc(N4C[C@@H](C)N(C)[C@@H](C)C4)c(NC(=O)c4c[nH]c(=O)cc4C(F)(F)F)c3)c2)C(C)(C)C)cc1 [MS67]
WDR5 K296R
  Degradation of WDR5 K296R mutant: resistant to the MS67 treatment

## CN1CCN(c2ccc(-c3cccc(CN4CCOCC4)c3)cc2NC(=O)c2c[nH]c(=O)cc2C(F)(F)F)CC1 [OICR-9429]
[7]
  Antiproliferative activity: lack of antiproliferative activity
